According to patent US20070049538A1, “METHODS FOR USING CUCURBITACIN COMPOUNDS” (SOUTH DAKOTA STATE UNIVERSITY, priority 2005, published 2007):

Assays:
HSC-T6 cells [1] = experiment: Cytotoxicity on HSC-T6 cells (experiment 3); format: cell-based, rat; conditions: read-out: Experiment 3 IC50 (T)
Text: Cytotoxicity of all cucurbitacin analogs was additionally measured in experiment 3 (Table 8).

HepG2 cells [2] = experiment: cells; conditions: for EC50: read-out: EC50 cytoprotection, Table 7, HepG2 against CCl4 toxicity, estimated
Text: Experimental conditions were standardized on silybin. […]
The ratio of IC50-to-EC50 (hereafter T/A) is also indicated in this table, which gives the margin between toxic and cytoprotective concentrations.

[3] = Chromatographic hydrophobicity index (CHI) by RP-HPLC in buffered methanol; format: physicochemical; conditions: for CHIMeOH: buffered methanol pH 7.0, Econosil C18 150 mm, Eq. (4); for CHIMeOH (b): standard compounds, isochratic and gradient elution of standard mixture
Protocol: (§1) We used Dynamax liquid chromatograph (Varian Chromatography Systems) with PDA-2 photodiode array UV detector, controlled by the Dynamax PC Chromatography Data System (v. 1.9) software and Dynamax dual pump solvent delivery system, model SD-200. […] Cucurbitacins analytical separation was optimized on Alltima C18 (Alltech; 250 mm×4.6 mm, 5 μm) HPLC column, at gradient elution in acetonitrile (ACN, 30-70% ACN in 57 min), and in MeOH (60-75% MeOH in 50 min). Cucurbitacins stock concentration of 10^−2M in DMSO:ethanol (1:1) was standardized against pure cucurbitacin I (Indofine Chemical Company, Hillsborough, N.J.) by analytical HPLC means. Compounds CHI was measured in both ACN, by using Alltima C18 column, and in MeOH, by using Econosil C18 column (Alltech; 150 mm×4.6 mm, 5 μm). Analytical separations were conducted at a flow rate of 1 ml/min. The aqueous phase was buffered for the CHI measurement. For this purpose, solid ammonium acetate (Fisher Sci. Co., Fair Lawn, N.J.) was dissolved in deionized distilled water at 50 mM final concentration and its pH adjusted to 7.0.
A standard mixture of 10 compounds including 19-21, 23-27, aniline (compound 28) and bromobenzene (compound 29), dissolved in MeOH, was injected at five isochratic elution, at 40, 45, 50, 55, and 60% MeOH. Then the mixture was injected at fast gradient elution to establish the correlation from Eq. (1). The fast linear gradient elution was optimized for 30-100% MeOH in aqueous buffer with 10 min runtime.
(§2) Cucurbitacins lipophilicity was measured by RP-HPLC. […] Due to its high viscosity, aqueous MeOH required a shorter column than the one applied for ACN. First, the C18 columns were calibrated against a standard mixture, and the relationships established between the fast gradient tR and φ0 or published CHI (see Eqs. (2)-(4) from Table 2). Second, cucurbitacins were injected at fast gradient elution under similar conditions, and their CHI calculated (Table 4) from Eqs. (2)-(4). Eqs.

HSC-T6 cells [4] = experiment: Serum-driven HSC-T6 proliferation, experiment 1 (4 h challenge, two days drug-free growth); format: cell-based, rat; conditions: for EC50: HSC-T6, 4 h challenge, then two days drug-free media
Protocol: The proliferation effect of serum on HSC-T6 cells was optimized and cucurbitacin antiproliferative activity was measured. Serum contains a large number of growth factors, hormones and other nutrients, which help cells to grow and multiply. Several trials were conducted. In experiment 1, cells were challenged with cucurbitacin analogs for 4 h and then cells were grown in drug-free media for two additional days.
HSC-T6 cells were photographed under phase-contrast microscope to record possible changes in cell morphology during experiment 1. […] We are monitoring specifically the effect of compound on the cells, cell recovery after 4 h challenge, and relative cell proliferation. […] Live cells are quantified at the end of the assay (row 4) with MTT dye.
(§3) We established several experimental conditions such as 4 hours of incubation time with cucurbitacin, and 2 day cell incubation with fresh media after challenging with cucurbitacin (Exp. 1). Other experiments involved addition of cucurbitacin for 24 hours over starved cells (Exp. 2) vs. proliferating cells (Exp. 3), and one day incubation of cells with fresh media after challenge. […] Because of that, the challenge time was increased to 24 hours (Exp. 2 and 3).
We modified this approach. Our assay included a second control (ZC) supplemented with no serum intended to measure cucurbitacin anti-proliferation effect relative to the number of cells generated during challenge instead of the total number of cells present in each well.

HSC-T6 cells [5] = experiment: Serum-driven HSC-T6 proliferation, experiment 3 (24 h, proliferating cells); format: cell-based, rat; conditions: HSC-T6, 24 h, proliferating cells; read-out: Experiment 3 EC50 (A)
Protocol: To overcome this problem, the amount of incubation time was increased to 24 h, and cucurbitacin activity measured on starved (Exp. 2) or proliferative (Exp. 3) cells (Table 8). Cells turned quiescent when serum was not supplemented for one day (Exp. 2). Activity of a few compounds was monitored on quiescent cells, and their activity compared to the ones measured on proliferating cells (Exp. 3).
as §3, with “challenge. The 4 hour incubation period with cucurbitacin triggered anti-proliferation effect. This effect, however, was hindered by a second cycle of cell proliferation during the two-day cell growth period (see silybin, E and I glucosides, and for I-nPr).” for “challenge.”
In experiment 3, only 40% of the cells divided. The ratio of EC50 values for exp. 2 and exp. 3 varied between 3.6 and 12.7. This may indicate differential cytotoxicity of silybin and cucurbitacin analogs over quiescent and active stellate cells. In other words, compounds show higher anti-proliferative activity on active cells than on quiescent cells.

[6] = Chromatographic hydrophobicity index (CHI) by RP-HPLC in buffered acetonitrile; format: physicochemical; design: key: CHI = φ0 (isocratic hydrophobicity index), = A·tR + B; ACN % scale; conditions: for CHIACN1: buffered acetonitrile pH 7.0, Alltima C18 250 mm, Eq. (2) from isocratic φ0; for CHIACN2: buffered acetonitrile pH 7.0, Eq. (3) calibrated against published CHI
Protocol: as §1
All standard compounds were purchased from Acros (Acros Organics, NJ). The chromatographic lipophilicity or hydrophobicity was determined applying Valkó's technique (Valkó et al., Anal. Chem. 69 (1997) 2022, the entire disclosure of which is herein incorporated by reference). A standard mixture of seven compounds was prepared in solution: theophylline (compound 19), benzimidazole (compound 20), acetophenone (compound 21), indole (compound 22), propiophenone (compound 23), butyrophenone (compound 24), and valerophenone (compound 25). […] The retention factor, log k=log((tR-t0)/t0), was calculated for each analyte from five good injections of […] sample. The dead time (t0) was measured by injecting NaNO3 together with the sample. Then, the log k values were plotted against isocratic ACN concentrations to establish the linear regression equations for each analyte. From each straight line the isocratic hydrophobicity index was computed, φ0=(intercept/slope). Further, the calibration mixture was injected at fast gradient elution, 0-22 min 0-100% ACN, and three additional minutes at 100% ACN. The φ0 values for the test compounds were plotted against gradient retention time and the linear equation determined from the following equation: φ0=CHI=AtR+B (1)
The gradient elution conditions were similar to the one from the first approach.
as §2

HepG2 cells [7] = experiment: Cucurbitacins cytotoxicity on HepG2 cells (MTT viability assay); format: cell-based, human
Protocol: HepG2 (human hepatocellular carcinoma, ATCC) cells were grown in EMEM (Gibco, Grand Island, N.Y.) supplemented with 10% fetal bovine serum (FBS), and 1% penicillin/fungizone mixture (Gibco). Thabrew's optimized procedure (Thabrew et al., J. Pharm. Pharmcol. 49 (1994) 1442, the entire disclosure of which is herein incorporated by reference) was followed. Cells were batch cultured for 10 days, then seeded at concentration of 30,000 cells/well in fresh media in 96-well microtiter plastic plates at 37° C. for a day. Then cells were exposed to different concentrations of cucurbitacins at final volume of 100 μl/well. Five-fold serial dilution of compounds was carried out in the plate for five consecutive wells. After 24 h of incubation with chemicals, live cells were visualized using the MTT viability assay (Promega, Madison, Wis.). The absorbance was measured at 570 nm. Negative (without cells) and positive (without test chemicals) controls were also incubated with each plate. […] At least three reproducible experiments were performed per compound with three replicate wells per concentration.
Cells were challenged with cu-curbitacins at various concentrations for a day and then live cells quantified with MTT dye. This period of time measures exclusively compounds cytotoxicity, while longer incubation time may lead to interference from metabolites.

[8] = standard compounds; gradient elution and correlation with published data; cited from earlier work

| Compound | IC50 (HSC-T6 cells [1]) [µM] | cytoprotection on HepG2 cells (HepG2 cells [2]; at 6.25% of IC50, against CCl4) | cytoprotection on HepG2 cells (HepG2 cells [2]; at 12.5% of IC50, against CCl4) | cytoprotection on HepG2 cells (HepG2 cells [2]; at 20% of IC50, against CCl4) | cytoprotection on HepG2 cells (HepG2 cells [2]; at 50% of IC50, against CCl4) | CHIMeOH [3] | EC50 (HSC-T6 cells [4]) [µM] | EC50 (HSC-T6 cells [5]) [µM] | CHIACN1 [6] | CHIACN2 [6] | IC50 (HepG2 cells [7]; Table 4, 24 h incubation, MTT) [µM] | IC50 (HepG2 cells [7]; Table 5) [µM] | Experiment 1 anti-proliferation activity (HSC-T6 cells [4]; measured at 2-6 μM) | CHIMeOH (b) [3] | CHIACN (c) [8] | EC50 (HepG2 cells [2]) [µM] | IC50 (HepG2 cells [7]; Table 7) [µM] | CHIACN (b) ([6]; standard compounds, isochratic and gradient elution of standard mixture) | Experiment 1 anti-proliferation activity (HSC-T6 cells [4]; measured at 100 μM) |
| --- | --- | --- | --- | --- | --- | --- | --- | --- | --- | --- | --- | --- | --- | --- | --- | --- | --- | --- | --- |
| CC(C)OC1=CC2C(=CCC3C2(C)C(=O)CC2(C)C(C(C)(O)C(=O)C=CC(C)(C)O)C(O)CC32C)C(C)(C)C1=O (stereo not shown) [I-iPr] | 2.5 | −17.10 ± 1.54 | 4.15 ± 0.48 | 18.69 ± 0.13 | 41.73 ± 2.06 | 71.55 | 3.85 | 0.25 | 73.87 | 79.94 | 7 ± 1 | 7.3 ± 0.6 |  |  |  |  |  |  |  |
| CCCOC1=CC2C(=CCC3C2(C)C(=O)CC2(C)C(C(C)(O)C(=O)C=CC(C)(C)O)C(O)CC32C)C(C)(C)C1=O (stereo not shown) [I-nPr] | 2.5 |  |  |  |  | 72.88 |  | 0.33 | 75.92 | 83.13 | 5 | 5 ± 0.5 | ˜18%^b^ |  |  |  |  |  |  |
| CCOC1=CC2C(=CCC3C2(C)C(=O)CC2(C)C(C(C)(O)C(=O)C=CC(C)(C)OC(C)=O)C(O)CC32C)C(C)(C)C1=O (stereo not shown) [E-Et] | 3.5 |  |  |  |  | 74.25 | 5.6 | 0.27 | 82.76 | 93.73 | 5.1 | 5.1 ± 0.9 |  |  |  |  |  |  |  |
| COc1cc2c(c(OC)c1OC)-c1ccc(OC)c(=O)cc1[C@@H](NC(C)=O)CC2 [Colchicine (26), colchicine, reference compound] |  |  |  |  |  |  |  |  |  |  |  |  |  | 57.56 + 0.04 | 41.37 |  |  |  |  |
| CC(=O)OC(C)(C)C=CC(=O)C(C)(O)C1C(O)CC2(C)C3CC=C4C(C=C(OC(C)C)C(=O)C4(C)C)C3(C)C(=O)CC12C (stereo not shown) [E-iPr] | 2.5 | −0.60 ± 1.11 | −7.81 ± 0.68 | −7.00 ± 0.17 | −32.99 ± 1.70 | 76.30 | 2.13 | 0.32 | 86.84 | 100.04 | 4.3 | 4.3 ± 0.5 |  |  |  |  |  |  |  |
| CC(C)(O)/C=C/C(=O)[C@](C)(O)[C@H]1[C@H](O)C[C@@]2(C)[C@@H]3CC=C4[C@@H](C=C(O)C(=O)C4(C)C)[C@]3(C)C(=O)C[C@]12C [I, cucurbitacin I] | 3.6 | 4.55 ± 0.64 | 17.50 ± 1.32 | 50.09 ± 1.02 | 54.75 ± 0.29 | 63.86 | 0.36 | 0.02 | 63.27 | 63.53 | 15.8 | 15.8 ± 6.7 |  |  |  | 3.2 | 15.8 |  |  |
| CC(C)(O)/C=C/C(=O)C(C)(O)C1C(O)CC2(C)C3CC=C4C(CC(=O)C(O)C4(C)C)C3(C)C(=O)CC12C (stereo not shown) [iso-D] | 8.7 |  |  |  |  | 62.27 | 2.13 | 0.06 | 60.59 | 59.37 | 80.3 | 80.3 ± 3.5 |  |  |  | 13.8 | 80.3 |  |  |
| c1ccc2[nH]ccc2c1 [Indole (22), indole, reference compound] |  |  |  |  |  |  |  |  |  |  |  |  |  |  | 69.15 |  |  | 67.73 + 0.13 |  |
| Cn1c(=O)c2nc(-c3ccccc3)[nH]c2n(C)c1=O [Ph-theophylline (27), phenyltheophylline, reference compound] |  |  |  |  |  |  |  |  |  |  |  |  |  | 61.61 ± 0.04 | 52.04 |  |  |  |  |
| CCCOC1=CC2C(=CCC3C2(C)C(=O)CC2(C)C(C(C)(O)C(=O)C=CC(C)(C)OC(C)=O)C(O)CC32C)C(C)(C)C1=O (stereo not shown) [E-nPr] | 2.8 |  |  |  |  | 77.66 | 2.28 | 0.34 | 88.34 | 102.37 |  |  |  |  |  |  |  |  |  |
| Nc1ccccc1 [Aniline (28), aniline, reference compound] |  |  |  |  |  |  |  |  |  |  |  |  |  | 29.94 ± 0.05 |  |  |  |  |  |
| CC(C)(O)/C=C/C(=O)[C@](C)(O)C1[C@H](O)C[C@@]2(C)C3CC=C4C(C=C(O[C@@H]5O[C@H](CO)[C@@H](O)[C@H](O)[C@H]5O)C(=O)C4(C)C)[C@]3(C)C(=O)C[C@]12C (stereo partly shown) [I-Gluc, cucurbitacin I glucoside] | 256 |  |  |  |  | 56.41 |  | 4.15 | 46.48 | 37.50 | 390 ± 10 | 390 ± 10 |  |  |  |  |  |  | ˜20%^a^ |
